Our source for the IC50 values is patent US11420958B2, “Aryl and heteroaryl substituted indole compounds” (BRISTOL-MYERS SQUIBB COMPANY, priority 2017, dated 2022).

Assay type in all cases: cell-based
The target of one test is human TLR7 (Homo sapiens (Human), UniProt Q9NYK1). Briefly: TLR7 inhibition reporter assay (HEK-Blue, SEAP). The following applies: HEK-Blue cells overexpressing human TLR7, gardiquimod 7.5 μM stimulation. The method in brief: (§1)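 After 30 min room-temperature pre-incubation with compound (0.05 nM–50 μM), reporter HEK-Blue lines were activated by ODN2006 5 nM for TLR9, R848 15.9 μM for TLR8 or gardiquimod 7.5 μM for TLR7. SEAP detected after 22 h, 37 °C; inhibition scaled between agonist+DMSO wells and known-inhibitor control.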
(In general: In a reporter assay the amount or activity of a reporter protein is the signal.)

A further test addresses human TLR8 (Homo sapiens (Human), UniProt Q9NR97). In words: TLR8 inhibition reporter assay (HEK-Blue, SEAP). The following applies: HEK-Blue cells overexpressing human TLR8, R848 15.9 μM stimulation. The method in brief:
as §1

The next test addresses human TLR9 (Homo sapiens (Human), UniProt Q9NR96). In words: TLR9 inhibition reporter assay (HEK-Blue, SEAP). The following applies: HEK-Blue cells overexpressing human TLR9, ODN2006 5 nM stimulation. An outline of the steps:
as §1

Chain of human TLR8 (Q9NR97 27-1041): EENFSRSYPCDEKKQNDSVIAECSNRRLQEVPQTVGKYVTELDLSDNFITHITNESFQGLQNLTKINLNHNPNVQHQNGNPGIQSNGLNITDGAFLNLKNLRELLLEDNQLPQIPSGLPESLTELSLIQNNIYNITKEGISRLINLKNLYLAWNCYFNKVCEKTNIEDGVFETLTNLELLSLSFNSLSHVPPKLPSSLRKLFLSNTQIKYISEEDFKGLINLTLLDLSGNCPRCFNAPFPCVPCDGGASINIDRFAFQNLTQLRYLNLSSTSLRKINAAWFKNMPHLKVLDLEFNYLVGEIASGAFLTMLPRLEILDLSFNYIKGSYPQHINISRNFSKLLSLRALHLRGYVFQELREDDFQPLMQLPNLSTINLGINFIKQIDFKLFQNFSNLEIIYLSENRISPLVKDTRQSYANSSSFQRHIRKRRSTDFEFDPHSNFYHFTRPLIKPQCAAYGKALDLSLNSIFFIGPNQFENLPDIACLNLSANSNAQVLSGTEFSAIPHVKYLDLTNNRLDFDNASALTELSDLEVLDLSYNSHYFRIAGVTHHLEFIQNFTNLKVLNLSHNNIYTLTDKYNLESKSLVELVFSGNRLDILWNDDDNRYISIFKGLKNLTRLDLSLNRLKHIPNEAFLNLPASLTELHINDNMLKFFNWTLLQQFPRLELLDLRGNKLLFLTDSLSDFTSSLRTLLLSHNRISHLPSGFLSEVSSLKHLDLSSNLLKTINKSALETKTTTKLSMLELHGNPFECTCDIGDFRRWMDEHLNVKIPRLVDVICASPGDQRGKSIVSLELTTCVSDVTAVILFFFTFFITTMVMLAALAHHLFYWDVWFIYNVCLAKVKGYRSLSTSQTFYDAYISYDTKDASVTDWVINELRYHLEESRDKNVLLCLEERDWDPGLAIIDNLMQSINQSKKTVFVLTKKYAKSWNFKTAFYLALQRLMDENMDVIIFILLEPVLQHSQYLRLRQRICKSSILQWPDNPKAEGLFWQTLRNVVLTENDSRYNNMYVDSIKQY
Chain of human TLR7 (Q9NYK1 27-1049): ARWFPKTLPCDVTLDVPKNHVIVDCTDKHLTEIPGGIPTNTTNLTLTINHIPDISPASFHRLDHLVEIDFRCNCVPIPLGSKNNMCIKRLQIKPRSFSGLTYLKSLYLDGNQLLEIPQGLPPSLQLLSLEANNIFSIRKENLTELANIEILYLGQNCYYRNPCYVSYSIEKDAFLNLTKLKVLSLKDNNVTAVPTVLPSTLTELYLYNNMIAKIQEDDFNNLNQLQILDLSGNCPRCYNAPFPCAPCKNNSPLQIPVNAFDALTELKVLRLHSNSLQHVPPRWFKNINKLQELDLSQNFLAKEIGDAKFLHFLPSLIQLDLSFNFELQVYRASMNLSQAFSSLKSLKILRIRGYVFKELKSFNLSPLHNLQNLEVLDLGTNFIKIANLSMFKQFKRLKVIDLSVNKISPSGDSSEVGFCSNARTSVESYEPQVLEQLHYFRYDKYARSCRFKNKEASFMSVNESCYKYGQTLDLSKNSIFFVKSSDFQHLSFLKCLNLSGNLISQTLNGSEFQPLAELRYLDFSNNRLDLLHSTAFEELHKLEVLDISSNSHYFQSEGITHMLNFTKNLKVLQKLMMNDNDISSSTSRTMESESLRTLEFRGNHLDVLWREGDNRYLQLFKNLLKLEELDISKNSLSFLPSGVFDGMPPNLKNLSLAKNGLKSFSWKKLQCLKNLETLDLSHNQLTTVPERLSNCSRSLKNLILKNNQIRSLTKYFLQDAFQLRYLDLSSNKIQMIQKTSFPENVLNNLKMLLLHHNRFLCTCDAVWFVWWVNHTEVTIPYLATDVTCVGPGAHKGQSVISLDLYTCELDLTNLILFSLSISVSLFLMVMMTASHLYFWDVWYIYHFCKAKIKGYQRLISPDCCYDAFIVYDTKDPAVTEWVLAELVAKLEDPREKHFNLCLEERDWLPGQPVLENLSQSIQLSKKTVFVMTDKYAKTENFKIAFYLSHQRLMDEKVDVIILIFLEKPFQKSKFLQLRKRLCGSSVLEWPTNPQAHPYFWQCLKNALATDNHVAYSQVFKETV
Chain of human TLR9 (Q9NR96 26-1032): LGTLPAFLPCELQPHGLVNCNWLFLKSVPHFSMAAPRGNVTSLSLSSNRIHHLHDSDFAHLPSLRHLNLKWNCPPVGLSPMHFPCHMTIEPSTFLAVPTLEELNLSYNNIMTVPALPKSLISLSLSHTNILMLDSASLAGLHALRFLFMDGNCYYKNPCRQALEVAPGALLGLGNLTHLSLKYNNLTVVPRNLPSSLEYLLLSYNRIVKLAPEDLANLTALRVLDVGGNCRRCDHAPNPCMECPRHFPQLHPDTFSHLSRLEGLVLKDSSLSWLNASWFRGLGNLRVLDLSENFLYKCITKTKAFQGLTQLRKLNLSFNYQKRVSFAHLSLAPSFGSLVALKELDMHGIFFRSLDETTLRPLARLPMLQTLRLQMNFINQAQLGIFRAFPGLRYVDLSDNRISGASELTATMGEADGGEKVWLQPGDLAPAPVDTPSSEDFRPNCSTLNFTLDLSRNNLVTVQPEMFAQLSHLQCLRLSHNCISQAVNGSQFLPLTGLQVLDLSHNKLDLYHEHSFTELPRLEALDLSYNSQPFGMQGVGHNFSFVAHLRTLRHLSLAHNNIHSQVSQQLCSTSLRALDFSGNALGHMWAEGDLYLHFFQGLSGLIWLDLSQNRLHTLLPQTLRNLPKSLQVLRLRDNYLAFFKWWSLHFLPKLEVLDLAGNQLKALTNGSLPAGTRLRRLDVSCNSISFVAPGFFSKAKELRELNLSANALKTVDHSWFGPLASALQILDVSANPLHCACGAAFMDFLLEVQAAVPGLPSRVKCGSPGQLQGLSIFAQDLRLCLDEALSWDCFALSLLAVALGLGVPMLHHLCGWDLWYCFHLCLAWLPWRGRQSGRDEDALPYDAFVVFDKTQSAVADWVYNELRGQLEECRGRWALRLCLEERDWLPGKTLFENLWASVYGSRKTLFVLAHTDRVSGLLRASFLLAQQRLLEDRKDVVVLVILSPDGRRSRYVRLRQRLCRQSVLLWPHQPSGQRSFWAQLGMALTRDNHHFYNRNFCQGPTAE

A word on the IC50: it is the concentration that gives 50% inhibition. A lower IC50 goes with greater potency in that assay. For `COc1ccc(-c2[nH]c3ccc(-c4nnc(C(=O)N5CC6CNCC6C5)o4)cc3c2C(C)C)cc1OC` (stereo not drawn) [Example 61, (5-(2-(3,4-dimethoxyphenyl)-3-isopropyl-1H-indol-5-yl)-1,3,4-oxadiazol-2-yl)(hexahydropyrrolo[3,4-c]pyrrol-2(1H)-yl)methanone], the IC50 at human TLR7 was determined as 51 nM; against human TLR8, 6.9 nM; against human TLR9 it was 454 nM.
Take `CC(C)c1c(-c2ccnc3[nH]ncc23)[nH]c2ccc(-c3nnc(C(=O)N4CCCN(C)CC4)o3)cc12` [Example 125, (5-(3-isopropyl-2-(1H-pyrazolo[3,4-b]pyridin-4-yl)-1H-indol-5-yl)-1,3,4-oxadiazol-2-yl)(4-methyl-1,4-diazepan-1-yl)methanone]: the concentration for half-maximal inhibition (IC50) against human TLR7 amounted to 183 nM; on human TLR8, 40 nM; against human TLR9, 776 nM.
`Cc1cc(-c2[nH]c3ccc(-c4nnc(CC(F)(F)F)o4)cc3c2C(C)C)ccn1` [Example 75, 2-(3-isopropyl-2-(2-methylpyridin-4-yl)-1H-indol-5-yl)-5-(2,2,2-trifluoroethyl)-1,3,4-oxadiazole]: the half-inhibitory concentration (IC50) against human TLR7 was 576 nM; against human TLR8, 72 nM; against human TLR9, greater than 50000 nM.
Take `Cc1cc(-c2[nH]c3ccc(-c4nnc([C@@H]5CCCC[C@@H]5N)o4)cc3c2C(C)C)ccn1` [Example 266, (1S,2R)-2-(5-(3-isopropyl-2-(2-methylpyridin-4-yl)-1H-indol-5-yl)-1,3,4-oxadiazol-2-yl)cyclohexan-1-amine]: the IC50 against human TLR7 came out at 38 nM; against human TLR8, 0.5 nM; against human TLR9, 781 nM.
On the same counts, the results for `Cc1cc(-c2[nH]c3ccc(-c4nc5c(s4)CCN(CC(=O)N(C)C)C5)cc3c2C(C)C)cc(C)n1` [Example 329, 2-(2-(2-(2,6-dimethylpyridin-4-yl)-3-isopropyl-1H-indol-5-yl)-6,7-dihydrothiazolo[4,5-c]pyridin-5(4H)-yl)-N,N-dimethylacetamide] are 20 nM, 3.3 nM and 46700 nM.
On to `COc1ccc(-c2[nH]c3ccc(-c4nnc(C)o4)cc3c2C(C)C)cc1OC` [Example 63, 2-(2-(3,4-dimethoxyphenyl)-3-isopropyl-1H-indol-5-yl)-5-methyl-1,3,4-oxadiazole], for which the figures for the concentration for half-maximal inhibition (IC50) on human TLR7, on human TLR8 and against human TLR9 were 483 nM, 235 nM and greater than 50000 nM, respectively.
On the same counts, the results for `Cc1cc(-c2[nH]c3ccc(-c4nnc(C5CCCN(CC(=O)N(C)C)C5)[nH]4)cc3c2C(C)C)ccn1` (stereo not drawn) [Example 180, 2-(3-(5-(3-isopropyl-2-(2-methylpyridin-4-yl)-1H-indol-5-yl)-4H-1,2,4-triazol-3-yl)piperidin-1-yl)-N,N-dimethylacetamide] are 31 nM, 2.2 nM and 872 nM.
Regarding `COc1ccc(-c2[nH]c3ccc(-c4ccc(CN5CCOCC5)cc4)cc3c2C(C)C)cc1OC` [Example 413, 4-(4-(2-(3,4-dimethoxyphenyl)-3-isopropyl-1H-indol-5-yl)benzyl)morpholine], the half-maximal inhibitory concentration (IC50) is 440 nM on human TLR7, 38 nM on human TLR8 and greater than 50000 nM against human TLR9.
On the same counts, the results for `COc1ccc(-c2[nH]c3ccc(-c4cccc(N5CCN(CC(C)C)CC5)c4)cc3c2C(C)C)cc1OC` [Example 371, 2-(3,4-dimethoxyphenyl)-5-(3-(4-isobutylpiperazin-1-yl)phenyl)-3-isopropyl-1H-indole] are 894 nM, 176 nM and 10200 nM.
Regarding `COc1ccc(-c2[nH]c3ccc(-c4ccnc(C(=O)N[C@H]5CC[C@H](C(C)(C)O)CC5)c4)cc3c2C(C)C)cc1OC` [Example 13, 4-(2-(3,4-dimethoxyphenyl)-3-isopropyl-1H-indol-5-yl)-N-((1r,4r)-4-(2-hydroxypropan-2-yl)cyclohexyl)picolinamide], the IC50 is 1240 nM on human TLR7, 1010 nM against human TLR8 and greater than 50000 nM at human TLR9.
On the same counts, the results for `Cc1cc(-c2[nH]c3ccc(-c4ccc(N5CCC(N(C)C)CC5)nc4)cc3c2C(C)C)cc(C)n1` [Example 337, 1-(5-(2-(2,6-dimethylpyridin-4-yl)-3-isopropyl-1H-indol-5-yl)pyridin-2-yl)-N,N-dimethylpiperidin-4-amine] are 6.7 nM, 4.9 nM and 220 nM.
For `Cc1cc(-c2[nH]c3ccc(-c4nnc(CC(C)(C)N)o4)cc3c2C(C)C)ccn1` [Example 265, 1-(5-(3-isopropyl-2-(2-methylpyridin-4-yl)-1H-indol-5-yl)-1,3,4-oxadiazol-2-yl)-2-methylpropan-2-amine], the concentration for half-maximal inhibition (IC50) at human TLR7 stood at 21 nM; on human TLR8, 3.3 nM; against human TLR9, 561 nM.
For `Cc1cc(-c2[nH]c3ccc(-c4ccnc(-c5cn[nH]c5)c4)cc3c2C(C)C)ccn1` [Example 258, 5-(2-(1H-pyrazol-4-yl)pyridin-4-yl)-3-isopropyl-2-(2-methylpyridin-4-yl)-1H-indole] the same measures were 224 nM, 4 nM and 12000 nM.
Consider `CC(C)c1c(-c2ccnc3[nH]ncc23)[nH]c2ccc(-c3nnc(CNC4CC4)o3)cc12` [Example 148, N-((5-(3-isopropyl-2-(1H-pyrazolo[3,4-b]pyridin-4-yl)-1H-indol-5-yl)-1,3,4-oxadiazol-2-yl)methyl)cyclopropanamine], for which the IC50 was 945 nM against human TLR7, 37 nM against human TLR8 and greater than 50000 nM at human TLR9.
For `Cc1cc(-c2[nH]c3ccc(-c4nc(C(=O)NCC5CCNC5)c(C)o4)cc3c2C(C)C)ccn1` (stereo not drawn) [Example 194, 2-(3-isopropyl-2-(2-methylpyridin-4-yl)-1H-indol-5-yl)-5-methyl-N-(pyrrolidin-3-ylmethyl)oxazole-4-carboxamide] the same measures were 112 nM, 86 nM and 11700 nM.
Regarding `COc1ccc(-c2[nH]c3ccc(-c4ccc(N5CCN(C(C)C)CC5)nc4)cc3c2C(C)C)cc1OC` [Example 393, 2-(3,4-dimethoxyphenyl)-3-isopropyl-5-(6-(4-isopropylpiperazin-1-yl)pyridin-3-yl)-1H-indole], the 50% inhibitory concentration (IC50) against human TLR7 worked out at 60 nM; against human TLR8 it was 11 nM; at human TLR9 it was 666 nM.
For `CNCCNc1ccc(-c2ccc3[nH]c(-c4ccnc(C)c4)c(C(C)C)c3c2)cn1` [Example 202, N1-(5-(3-isopropyl-2-(2-methylpyridin-4-yl)-1H-indol-5-yl)pyridin-2-yl)-N2-methylethane-1,2-diamine] the same measures were 11 nM, 1.3 nM and 495 nM.
On the same counts, the results for `Cc1cc(-c2[nH]c3ccc(-c4nc(C(=O)NCCC5CCCN5)co4)cc3c2C(C)C)cc(C)n1` (stereo not drawn) [Example 291, 2-(2-(2,6-dimethylpyridin-4-yl)-3-isopropyl-1H-indol-5-yl)-N-(2-(pyrrolidin-2-yl)ethyl)oxazole-4-carboxamide] are 67 nM, 23 nM and 494 nM.
`COc1ccc(-c2[nH]c3ccc(-c4nnc([C@H]5CCCNC5)o4)cc3c2CC(F)(F)F)cc1OC` [compound 57]: the concentration for half-maximal inhibition (IC50) against human TLR7 was 31 nM; at human TLR8 it was 10 nM; against human TLR9, 1470 nM.
